# Experimental data reported in US20030119800A1, “Bone anabolic compounds and methods of use” (priority 2001, published 2003).
# Key:
# ERα = biological target: T1, ERα (Homo sapiens, UniProt P03372); test: SRE-SEAP and AP-1-SEAP reporter assays in HeLa cells transfected with ERα; format: cell-based; conditions: steroids 10^−8 M for 15 minutes (E2 as little as five minutes), SEAP six hours later
# T1 construct: HeLa cells transfected with the full length ERα; expressed in transfected cells; host or cells: HeLa
# T1 sequence (P03372 whole entry): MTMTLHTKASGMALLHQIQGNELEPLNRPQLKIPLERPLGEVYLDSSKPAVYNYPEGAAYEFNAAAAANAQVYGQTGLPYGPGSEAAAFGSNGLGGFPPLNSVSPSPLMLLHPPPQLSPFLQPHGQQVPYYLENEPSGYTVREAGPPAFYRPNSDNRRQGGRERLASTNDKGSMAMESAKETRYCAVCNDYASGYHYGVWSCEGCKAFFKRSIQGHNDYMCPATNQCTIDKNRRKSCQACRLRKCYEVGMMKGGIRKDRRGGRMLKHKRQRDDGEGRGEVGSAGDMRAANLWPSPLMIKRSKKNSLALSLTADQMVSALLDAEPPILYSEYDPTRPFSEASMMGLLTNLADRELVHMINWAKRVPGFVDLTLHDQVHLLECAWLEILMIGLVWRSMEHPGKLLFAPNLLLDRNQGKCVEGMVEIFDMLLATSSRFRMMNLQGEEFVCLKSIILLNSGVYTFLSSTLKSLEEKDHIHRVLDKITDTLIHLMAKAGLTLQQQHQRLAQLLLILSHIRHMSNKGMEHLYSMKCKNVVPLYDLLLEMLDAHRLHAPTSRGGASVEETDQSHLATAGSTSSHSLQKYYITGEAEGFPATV
# Procedure: HeLa cells were co-transfected with reporter constructs in which SRE or AP-1 drive the expression of secreted alkaline phosphatase (SEAP), along with the wild type ERα (A and B); or its ligand binding domain (E), or E fused to a membrane (E-Mem) or nuclear (E-Nuc) localization sequence (A). A dominant negaitve (dn) MEK or dn Jnk were also introduced into a subset of the ERα transfected cells. Cells were exposed to vehicle or the indicated steroids (10^−8M) for 15 minutes. The steroid containing media were then removed, the cells were washed twice, and the cultures were continued in fresh medium without steroids. Supernatants were collected six hours later and SEAP activity was assayed. In FIGS. 1A and 1B, 100% indicates activity in vehicle treated cells. (C) HeLa cells were co-transfected with the ERα and nEGFP and wild type or dn mutants of the indicated transcription factors. […] (D) HeLa cells (upper panel) were transiently co-transfected with the ERα, a nonphosphorylatable dn mutant of Bad. […] Cells were then treated as in (C).
# Transient transfections and reporter assays: HeLa cells were transfected using Lipofectamine Plus (Life Technologies Inc.). For reporter assays (luciferase or secreated alkaline phosphatase SEAP), serum-starved cells were treated with the indicated steroids for 15 min after which the steroid-containing media were removed, cells washed twice with 1% BSA in PBS, and fresh media without steroid were added. SEAP or luciferase assays were performed 6 h later using the Great EscAPe SEAP Chemiluminescence Kit (Clontech, Palo Alto, Calif.) or the dual luciferase Kit (Promega, Madison, Wis.), respectively, according to the manufacturer's instructions. Both reporter activities were normalized to renilla luciferase activity.
# [1] = tested on: calvaria-derived murine osteoblastic cells; test: Etoposide-induced apoptosis of calvaria-derived osteoblastic cells; format: cell-based, mouse
# Source text: HeLa cells were co-transfected with reporter constructs in which SRE or AP-1 drive the expression of secreted alkaline phosphatase (SEAP), along with the wild type ERα (A and B); or its ligand binding domain (E), or E fused to a membrane (E-Mem) or nuclear (E-Nuc) localization sequence (A). A dominant negaitve (dn) MEK or dn Jnk were also introduced into a subset of the ERα transfected cells. […] In FIGS. 1A and 1B, 100% indicates activity in vehicle treated cells. (C) HeLa cells were co-transfected with the ERα and nEGFP and wild type or dn mutants of the indicated transcription factors. […] (D) HeLa cells (upper panel) were transiently co-transfected with the ERα, a nonphosphorylatable dn mutant of Bad. Calvaria-derived murine osteoblastic cells (lower panel) were pre-treated with the P13K inhibitor wortmannin. Cells were then treated as in (C). […] (E) Proposed model for a kinase-mediated non-genotropic regulation of gene transcription and apoptosis by sex steroids.
# (§1) Osteoblastic cells (A) were isolated from calvaria of neonatal female or male mice, the sex of which was determined by Southern blot analysis of liver DNA with a Y chromosome specific cDNA probe; and cultured as previously described. The ability of the indicated steroids to protect against etoposide induced apoptosis was determined as in FIG. 1D, lower panel. (B) Osteoclasts were generated in bone marrow cultures from adult female or male mice, and then treated with vehicle or the indicated concentrations of steroids for 24 hours at which point the number of cells undergoing apoptosis was determined. Representative results from 1 of 4 females and 1 of 4 males examined are shown. Each point represents the mean of triplicate determinations±SD. *p<0.05 vs. vehicle, by ANOVA. (C & D) Eight-month old Swiss Webster mice (n=8-10 per group) were sham-operated, ovariectomized (OVX) or orchidectomized (ORX). […] BMD and wet uterine or seminal vesicle weight was determined six weeks later. Bars indicate means±SD. *p<0.05 vs OVX or ORX.
# (§2) Quantification of apoptotic cells in vitro: Apoptosis of HeLa cells or calvaria-derived osteoblastic cells was quantified by direct visualization of changes in nuclear morphology or by trypan blue staining, respectively, as previously described (Kousteni et al, 2001). Apoptosis of osteoclasts, derived from bone marrow cells cultured with 30 ng/ml M-CSF and 30 ng/ml soluble RANK ligand, was quantified by measuring caspase 3 activity as previously described (Weinstein et al, 2002).
# [2] = tested on: osteoclasts generated in bone marrow cultures from adult female or male mice; test: Osteoclast apoptosis in bone marrow derived cultures; format: cell-based, mouse
# Procedure: as §1
# FIG. 8 illustrates the pro-apoptotic effect of sex steroids on osteoclasts requires Src/ERK signaling. […] After 24 hours, the percentage of apoptotic osteoclasts was determined as in FIG. 7.
# as §2
smiles,measurement,setting,value
"C[C@]12CC[C@H]3[C@@H](CCC4=C[C@H](O)CC[C@@H]43)[C@@H]1CC[C@@H]2O [4-estren-3α,17β-diol]",AP-1-dependent transcriptional activity (AP-1-SEAP),ERα,downregulation of AP-1
same,SRE-dependent transcriptional activity (SRE-SEAP),ERα,Stimulation of SRE
same,difference in potency in osteoblasts from one sex versus the other,[1]; cell preparations from females or males,no difference
same,etoposide-induced apoptosis in primary cultures of osteoblasts,"[1]; cells from female or male mice, dose dependent manner",attenuated etoposide-induced apoptosis
same,difference in potency in osteoclasts from females and males,[2],no difference
